Common to all, as to format: cell-based
For series [1], the system named is S. aureus. Kind of series: Zone of inhibition on agar plates. The following applies: Staphylococcus aureus, 37° C., 24 h, 25 mg hydrogel with 2 mg drug. The method, then: (§1) S. aureus and S. mutans were cultured in nutrient broth and spread onto agar plates. Hydrogels (25 mg SF doxy hydrogel having 5 mm diameter with 2 mg drug) were kept in each plate in the center on the media and for doxycycline, drug was added in the center where the media was punched out. Plates were incubated at 37° C. for 24 h. After the incubation period, radius of the zone of inhibition was measured in each plate.

In series [2] the test system is S. mutans. Kind of series: Zone of inhibition on agar plates. To be noted: Streptococcus mutans, 37° C., 24 h, 25 mg hydrogel with 2 mg drug. The method, then: as §1
Series [3] is described as follows: MTT assay cell viability. Here is the method: All the three cell lines (10,000 cells/200 μl medium) were cultured in their respective media in 96-well plates until they reached 60% confluency. Hydrogels and doxycycline were added in their respective wells. Plates were incubated at 37° C., 5% CO2, for 24 h. Media were removed and 200 μl of MTT solution (0.5 mg/ml prepared in phosphate buffer saline (PBS, Himedia, Catalog #TS1119)) was added to each well. Plate was incubated in dark at 37° C., 5% CO2 for 4h. MTT solution was then removed and 100 μl demthyl sulfoxide (DMSO) was added to each well to dissolve the formazan crystal. Absorbance was calculated at 570 nm in the multiplate reader. Percent of cell viability was calculated using Equation 2.
Where, O.D. is optical density at 570 nm.

Data on one compound can be found in patent publication US20250144170A1, “METHOD FOR SUSTAINED DRUG DELIVERY FOR WOUND HEALING USING SILK HYDROGEL AND PRODUCT THEREOF” (AASYA HEALTH CARE PRIVATE LIMITED, priority 2022, published 2025).

As for `C[C@H]1c2cccc(O)c2C(=O)C2=C(O)[C@]3(O)C(=O)C(C(N)=O)=C(O)[C@@H](N(C)C)[C@@H]3[C@@H](O)[C@@H]21` [doxycycline], the zone of inhibition at 2000 µg/disc was 10 mm in series [1] and 25 mm in series [2]. In addition, the viability at 24 h in series [3] (human, HDFC cells) is 40%; in series [3] (human, MG63 cells, MG63, 24 h), 40%; in series [3] (mouse, MC3T3 cells, MC3T3, 24 h), 40%.
